# Assay results reported in US20260200897A1, “4-((5-(3-(4-(PYRIDIN-2-YL)CYCLOPENTYL)-1H-PYRAZOL-3-YL)AMINO)-BENZENESULFONAMIDE DERIVATIVES AND SIMILAR COMPOUNDS AS CDK INHIBITORS FOR THE TREATMENT OF CANCER” (BeOne Medicines I GmbH, priority 2023, published 2026).
# Legend:
# CDK1/Cyclin B1 = CDK1/Cyclin B1 (Homo sapiens, UniProt P06493); experiment: CDK1/Cyclin B1 TR-FRET biochemical assay, 1 mM ATP; details: 0.15 μM Rb (Ser780)-biotin substrate, 90 min reaction, Table 2
# Description: (§1) Compounds disclosed herein were tested for inhibition of CDK2/Cyclin E1 or CDK1/Cyclin B kinase in an assay based on the time-resolved fluorescence-resonance energy transfer (TR-FRET) methodology. The assay was carried out in 384-well low volume black plates in a reaction mixture containing CDK2/Cyclin E1 or CDK1/Cyclin B1, 1 mM ATP for CDK2/Cyclin E1 and CDK1/Cyclin B1, 0.15 μM Rb (Ser780)-biotin substrate and 0-10 μM compound in buffer containing 50 mM HEPES pH7.0, 0.02% NaN3, 0.01% BSA, 0.1 mM Orthovanadate, 50 mM MgCl2, 1 mM DTT and 0.005% Tween-20. The kinase was incubated with compound for 60 minutes at room temperature and the reaction was initiated by the addition of ATP and Rb (Ser780)-biotin substrate. After reaction at room temperature for 90 minutes, an equal volume of stop/detection solution was added according to the manufacture's instruction (Cisbio Bioassays). The stop/detection solution contained Streptavidin-XL665 and Anti-pRb (Ser780) mAb-Eu Cryptate in Detection buffer (Cisbio Bioassays). Plates were incubated at room temperature for 60 minutes, and the TR-FRET signals (ex337 nm, em665 nm/620 nm) were recorded on a PHERAstar FSX plate reader (BMG Labtech). The inhibition percentage of CDK2/Cyclin E1 or CDK1/Cyclin B1 kinase activity in presence of increasing concentrations of compounds was calculated based on the ratio of fluorescence at 665 nm to that at 620 nm. The IC50 for each compound was derived from fitting the data to the four-parameter logistic equation by Dotmatics.
# CDK2/Cyclin E1 = CDK2/Cyclin E1 (Homo sapiens, UniProt P24941); experiment: CDK2/Cyclin E1 TR-FRET biochemical assay, 1 mM ATP; details: 0.15 μM Rb (Ser780)-biotin substrate, 90 min reaction, Table 2
# Description: as §1
# Chain of CDK1/Cyclin B1 (P06493 whole entry): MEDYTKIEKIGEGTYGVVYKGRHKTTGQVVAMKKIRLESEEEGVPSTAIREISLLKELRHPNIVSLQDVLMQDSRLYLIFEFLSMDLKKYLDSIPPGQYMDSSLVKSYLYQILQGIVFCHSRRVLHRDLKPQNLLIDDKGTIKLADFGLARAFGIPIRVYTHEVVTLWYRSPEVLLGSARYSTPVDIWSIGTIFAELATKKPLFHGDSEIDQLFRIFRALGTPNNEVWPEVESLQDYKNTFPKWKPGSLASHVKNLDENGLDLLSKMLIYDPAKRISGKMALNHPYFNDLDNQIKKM
# Chain of CDK1/Cyclin B1 (P14635 whole entry partner): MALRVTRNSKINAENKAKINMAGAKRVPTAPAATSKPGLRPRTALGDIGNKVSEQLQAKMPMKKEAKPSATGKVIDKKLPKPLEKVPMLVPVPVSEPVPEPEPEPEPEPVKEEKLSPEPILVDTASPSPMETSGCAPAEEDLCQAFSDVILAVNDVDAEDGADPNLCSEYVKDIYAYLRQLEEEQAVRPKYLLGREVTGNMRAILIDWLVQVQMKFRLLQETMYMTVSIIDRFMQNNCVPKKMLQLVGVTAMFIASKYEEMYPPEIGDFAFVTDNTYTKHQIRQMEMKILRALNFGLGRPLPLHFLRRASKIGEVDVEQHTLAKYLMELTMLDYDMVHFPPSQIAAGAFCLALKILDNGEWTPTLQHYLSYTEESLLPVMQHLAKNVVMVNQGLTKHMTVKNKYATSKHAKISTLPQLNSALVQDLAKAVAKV
SMILES,IC50 (CDK1/Cyclin B1) [nM],IC50 (CDK2/Cyclin E1) [nM]
"CC(C)(C)c1cnc(C2CCC(c3cc(Nc4cc5c(cc4F)S(=O)(=O)NC5)n[nH]3)C2)o1 (single isomer, unassigned) [Example 17a, 5-((5-(3-(5-(tert-butyl)oxazol-2-yl)cyclopentyl)-1H-pyrazol-3-yl)amino)-6-fluoro-2,3-dihydrobenzo[d]isothiazole 1,1-dioxide]",2090,3.9
"CC(C)(C)c1cnc(C2CCC(c3cc(Nc4cc5c(cc4F)S(=O)(=O)NC5)n[nH]3)C2)o1 (single isomer, unassigned) [Example 17b, 5-((5-(3-(5-(tert-butyl)oxazol-2-yl)cyclopentyl)-1H-pyrazol-3-yl)amino)-6-fluoro-2,3-dihydrobenzo[d]isothiazole 1,1-dioxide]",> 10000,7710
"CC(C)(C)c1cnc(C2CCC(c3cc(Nc4cc5c(cc4F)S(=O)(=O)NC5)n[nH]3)C2)o1 (single isomer, unassigned) [Example 17c, 5-((5-(3-(5-(tert-butyl)oxazol-2-yl)cyclopentyl)-1H-pyrazol-3-yl)amino)-6-fluoro-2,3-dihydrobenzo[d]isothiazole 1,1-dioxide]",> 10000,102
"CC(C)(C)c1cnc(C2CCC(c3cc(Nc4cc5c(cc4F)S(=O)(=O)NC5)n[nH]3)C2)o1 (single isomer, unassigned) [Example 17d, 5-((5-(3-(5-(tert-butyl)oxazol-2-yl)cyclopentyl)-1H-pyrazol-3-yl)amino)-6-fluoro-2,3-dihydrobenzo[d]isothiazole 1,1-dioxide]",> 10000,2870
"CC(C)c1cnc(C2CCC(c3cc(Nc4ccc5c(c4F)CNS5(=O)=O)n[nH]3)C2)o1 (single isomer, unassigned) [Example 109a, 4-fluoro-5-((5-(3-(5-isopropyloxazol-2-yl)cyclopentyl)-1H-pyrazol-3-yl)amino)-2,3-dihydrobenzo[d]isothiazole 1,1-dioxide]",2870,8.6
"CC(C)c1cnc(C2CCC(c3cc(Nc4ccc5c(c4F)CNS5(=O)=O)n[nH]3)C2)o1 (single isomer, unassigned) [Example 109b, 4-fluoro-5-((5-(3-(5-isopropyloxazol-2-yl)cyclopentyl)-1H-pyrazol-3-yl)amino)-2,3-dihydrobenzo[d]isothiazole 1,1-dioxide]",> 10000,172
"CC(C)c1cnc(C2CCC(c3cc(Nc4ccc5c(c4F)CNS5(=O)=O)n[nH]3)C2)o1 (single isomer, unassigned) [Example 109c, 4-fluoro-5-((5-(3-(5-isopropyloxazol-2-yl)cyclopentyl)-1H-pyrazol-3-yl)amino)-2,3-dihydrobenzo[d]isothiazole 1,1-dioxide]",> 10000,1810
"CC(C)c1cnc(C2CCC(c3cc(Nc4ccc5c(c4F)CNS5(=O)=O)n[nH]3)C2)o1 (single isomer, unassigned) [Example 109d, 4-fluoro-5-((5-(3-(5-isopropyloxazol-2-yl)cyclopentyl)-1H-pyrazol-3-yl)amino)-2,3-dihydrobenzo[d]isothiazole 1,1-dioxide]",> 10000,158
"CC(C)c1cnc(C2CCC(c3cc(Nc4ccc5c(c4)CS(=O)(=O)N5)n[nH]3)C2)o1 (single isomer, unassigned) [Example 138a, cis-5-((5-(3-(5-isopropyloxazol-2-yl)cyclopentyl)-1H-pyrazol-3-yl)amino)-1,3-dihydrobenzo[c]isothiazole 2,2-dioxide]",160,1.8
"CC(C)c1cnc(C2CCC(c3cc(Nc4ccc5c(c4)CS(=O)(=O)N5)n[nH]3)C2)o1 (single isomer, unassigned) [Example 138b, cis-5-((5-(3-(5-isopropyloxazol-2-yl)cyclopentyl)-1H-pyrazol-3-yl)amino)-1,3-dihydrobenzo[c]isothiazole 2,2-dioxide]",2420,12
"CC(C)c1cnc(C2CCC(c3cc(Nc4ccc5c(c4F)CS(=O)(=O)N5)n[nH]3)C2)o1 (single isomer, unassigned) [Example 152a, cis-4-fluoro-5-((5-(3-(5-isopropyloxazol-2-yl)cyclopentyl)-1H-pyrazol-3-yl)amino)-1,3-dihydrobenzo[c]isothiazole 2,2-dioxide]",238,2.8
"CC(C)c1cnc(C2CCC(c3cc(Nc4ccc5c(c4F)CS(=O)(=O)N5)n[nH]3)C2)o1 (single isomer, unassigned) [Example 152b, cis-4-fluoro-5-((5-(3-(5-isopropyloxazol-2-yl)cyclopentyl)-1H-pyrazol-3-yl)amino)-1,3-dihydrobenzo[c]isothiazole 2,2-dioxide]",4580,19
"CC(C)(C)c1cnc(C2CCC(c3cc(Nc4ccc5c(c4)CN=S5(C)=O)n[nH]3)C2)o1 (single isomer, unassigned) [Example 169a, 5-((5-(3-(5-(tert-butyl)oxazol-2-yl)cyclopentyl)-1H-pyrazol-3-yl)amino)-1-methyl-3H-1λ^4-benzo[d]isothiazole 1-oxide]",189,0.6
"CC(C)(C)c1cnc(C2CCC(c3cc(Nc4ccc5c(c4)CN=S5(C)=O)n[nH]3)C2)o1 (single isomer, unassigned) [Example 169b, 5-((5-(3-(5-(tert-butyl)oxazol-2-yl)cyclopentyl)-1H-pyrazol-3-yl)amino)-1-methyl-3H-1λ^4-benzo[d]isothiazole 1-oxide]",2350,21
"CC(C)(C)c1cnc(C2CCC(c3cc(Nc4ccc5c(c4)CN=S5(C)=O)n[nH]3)C2)o1 (single isomer, unassigned) [Example 169c, 5-((5-(3-(5-(tert-butyl)oxazol-2-yl)cyclopentyl)-1H-pyrazol-3-yl)amino)-1-methyl-3H-1λ^4-benzo[d]isothiazole 1-oxide]",6710,57
"CC(C)(C)c1cnc(C2CCC(c3cc(Nc4ccc5c(c4)CN=S5(C)=O)n[nH]3)C2)o1 (single isomer, unassigned) [Example 169d, 5-((5-(3-(5-(tert-butyl)oxazol-2-yl)cyclopentyl)-1H-pyrazol-3-yl)amino)-1-methyl-3H-1λ^4-benzo[d]isothiazole 1-oxide]",> 10000,173
"CC(C)(C)c1ccnc(C2CCC(c3cc(Nc4ccc(S(N)(=O)=O)cc4F)n[nH]3)C2)c1 (centres unmarked) [Example 1, 4-((5-(3-(4-(tert-butyl)pyridin-2-yl)cyclopentyl)-1H-pyrazol-3-yl)amino)-3-fluorobenzenesulfonamide]",> 10000,100
"Cc1cc(C(C)(C)C)cc(C2CCC(c3cc(Nc4ccc(S(N)(=O)=O)cc4F)n[nH]3)C2)n1 (centres unmarked) [Example 2, 4-((5-(3-(4-(tert-butyl)-6-methylpyridin-2-yl)cyclopentyl)-1H-pyrazol-3-yl)amino)-3-fluorobenzenesulfonamide]",> 10000,5680
"CC(C)(C)c1cnnc(C2CCC(c3cc(Nc4ccc(S(N)(=O)=O)cc4F)n[nH]3)C2)c1 (centres unmarked) [Example 3, 4-((5-(3-(5-(tert-butyl)pyridazin-3-yl)cyclopentyl)-1H-pyrazol-3-yl)amino)-3-fluorobenzenesulfonamide]",> 10000,147
"CC(C)(C)c1ccnc(C2CCC(c3cc(Nc4ccc(S(N)(=O)=O)cc4F)n[nH]3)C2)n1 (centres unmarked) [Example 4, 4-((5-(3-(4-(tert-butyl)pyrimidin-2-yl)cyclopentyl)-1H-pyrazol-3-yl)amino)-3-fluorobenzenesulfonamide]",848,7.1
"CC(C)c1ccnc(C2CCC(c3cc(Nc4ccc(S(N)(=O)=O)cc4F)n[nH]3)C2)n1 (centres unmarked) [Example 5, 3-fluoro-4-((5-(3-(4-isopropylpyrimidin-2-yl)cyclopentyl)-1H-pyrazol-3-yl)amino)benzenesulfonamide]",656,4.6
"CC(C)c1cnc(C2CCC(c3cc(Nc4ccc(S(N)(=O)=O)cc4F)n[nH]3)C2)o1 (centres unmarked) [Example 7, 3-fluoro-4-((5-(3-(5-isopropyloxazol-2-yl)cyclopentyl)-1H-pyrazol-3-yl)amino)benzenesulfonamide]",> 10000,93
"Cc1nc(C2CCC(c3cc(Nc4ccc(S(N)(=O)=O)cc4F)n[nH]3)C2)oc1C(C)(C)C (centres unmarked) [Example 8, 4-((5-(3-(5-(tert-butyl)-4-methyloxazol-2-yl)cyclopentyl)-1H-pyrazol-3-yl)amino)-3-fluorobenzenesulfonamide]",> 10000,79
"NS(=O)(=O)c1ccc(Nc2cc(C3CCC(c4ncc(C5CC5)o4)C3)[nH]n2)c(F)c1 (centres unmarked) [Example 9, 4-((5-(3-(5-cyclopropyloxazol-2-yl)cyclopentyl)-1H-pyrazol-3-yl)amino)-3-fluorobenzenesulfonamide]",> 10000,131
"CC(C)(C)c1ccc(C2CCC(c3cc(Nc4cc5c(cc4F)S(=O)(=O)NC5)n[nH]3)C2)nc1 (centres unmarked) [Example 10, 5-((3-(3-(5-(tert-butyl)pyridin-2-yl)cyclopentyl)-1H-pyrazol-5-yl)amino)-6-fluoro-2,3-dihydrobenzo[d]isothiazole 1,1-dioxide]",> 10000,> 10000
